In patent US9556242B2, “Method for regulating circadian rhythms” (ANYGEN CO., LTD., priority 2011, dated 2017):
“Also recorded” adds a separate entry of the source.

System: per2 promoter
Test: Per2-luciferase activity in cultured mouse brain sections including SCN after NQ peptide treatment
Format: cell-based
Settings: for phase-advance effect on Per2 circadian activity: NQ peptide forms and mutants treated to incubated brain section including SCN (FIG. 15); for effects in the Per2 phase advance or delay: 100 nM for 4 hours; for phase changes / activity period of per2 promoter: treated at the highest point of per2 activity; for phase changes / activity period of per2 promoter / free-running period after treatment: 5 μM (FIG. 12); for free-running period after treatment: treated at the lowest point of per2 activity
Description: Animals used in this experiment were transgenic mice in which the construct inserted Luciferase gene behind per2 promoter was knocked-in. The mice were sacrificed. The brain was speedily isolated and sectioned in a thickness of 400 μm including SCN. The mouse brain tissue sections were incubated in media containing 1% penicillin/streptomycin antibiotics, 25% Horse Serum, 25% Hank's Buffered Salt Solution (HBSS), 50% Minimum Essential Medium (MEM) and 0.3 mM luciferin. At 5 days after the incubation, the synthetic NQ peptides were treated with 5 μM of final concentration. Then, luciferase activity derived from changes of per2 promoter activities was observed.
The NQ peptides were treated with 100 nM of the concentration at 2, 6, 10, 14, 20 and 22 hours after the peak in Per2 activity with the 24-hour intervals wave. The treatment was maintained 4 hours. Then, the media were changed.
The NQ peptides were treated with 2 nM, 20 nM, 200 nM and 2000 nM of the concentrations for 4 hours to the sections at 10 hours after the peak in Per2 activity. Then, the media were changed to the original media (50% minimum essential medium, 25% gey's balanced salt solution, 25% horse serum, 36 mM glucose, and 100 units/ml aerosolized antibiotics) containing 0.3 mM luciferin to limit drug duration of the NQ peptide.
To achieve this, the present inventors have synthesized mutants: deletion mutant sequencing from first Asn to tenth Leu among the amino acid sequences as set forth in SEQ ID NO:2; optical isomer mutant 1 in which the second Trp residue is modified to D-form Trp; and optical isomer mutant 2 in which the eleventh Lys residue is modified to D-form Lys.
The NQ peptide as set forth in SEQ ID NO:2 or 3, or the NQ peptide mutants were respectively treated to the incubated brain section including SCN. Particularly, the NQ peptide as set forth in SEQ ID NO:2 found in humans and mouse was simultaneously treated with the a-NQ-S antibody as neutralization substance to elucidate those specific effects with more accuracy. […] Therefore, it could be understood that the carboxyl-terminus sequencing from the eleventh Lys residue to Gln as well as the second Trp residue and the eleventh Lys residue in the amino acid sequence of NQ peptide as set forth in SEQ ID NO:2 are very important in physiological activity.

Substance	phase-advance effect on Per2 circadian activity	effects in the Per2 phase advance or delay (treated at 2 hours after the peak in Per2 activity (FIG. 13))	effects in the Per2 phase advance or delay (treated at 6 hours after the peak in Per2 activity (FIG. 13))	effects in the Per2 phase advance or delay (treated at 10 hours after the peak in Per2 activity (FIG. 13))	effects in the Per2 phase advance or delay (treated at 14 hours after the peak in Per2 activity (FIG. 13))	effects in the Per2 phase advance or delay (treated at 20 hours after the peak in Per2 activity (FIG. 13))	effects in the Per2 phase advance or delay (treated at 22 hours after the peak in Per2 activity (FIG. 13))	highest effect time (after peak in Per2 activity) (100 nM, phase-dependent treatment (FIG. 13)) [h]	dose dependence of Per2 phase-advance effect (2, 20, 200, 2000 nM for 4 hours at 10 hours after the peak (lowest point) in Per2 activity (FIG. 14))	concentration range in which Per2 expression period was advanced proportionally (4 hours treatment at 10 hours after the peak in Per2 activity (FIG. 14)) [nM]	phase-advance effect on Per2 circadian activity (listed as NQ peptide as set forth in SEQ ID NO:2)	free-running period advanced by (synthetic NQ peptide treated at the lowest point in Per2 phase, mouse brain section (FIG. 12))	phase changes / activity period of per2 promoter	phase changes / activity period of per2 promoter (listed as synthetic NQ peptide)	highest concentration of the NQ peptide (phase-advance effect) (treated at the lowest point in Per2 phase (FIG. 14)) [nM]	free-running period after treatment	free-running period after treatment (listed as synthetic NQ peptide)	activity period of per2 promoter (treated at the point in which per2 shows the highest activity, 5 μM)
NQ peptide as set forth in SEQ ID NO:3: form of the NQ peptide found in rat; His residue at the carboxyl-terminus instead of the amide group (NWTPQAMLYLKGAQGH; NQ Peptide 3)	caused the advance effects in circadian activity; also recorded: changed the Per2 phase; also recorded: showed phase-advance effects of Per2	–	–	–	–	–	–	–	–	–	–	–	–	–	–	–	–	–
NWTPQAMLYLKGAQ-NH2 [NQ peptide]	–	negligible or barely shown	negligible or barely shown	significantly advanced	significantly advanced	significantly advanced	negligible or barely shown; also recorded: negligible	10	advanced proportionally to the concentration; also recorded: dose-dependent manner	20 to 200	caused the advance effects in circadian activity; also recorded: changed the Per2 phase; also recorded: showed phase-advance effects of Per2	approximately 2.80 hours	not changed	negligible or barely shown	200	approximately 22.3 hours	approximately 22.87 hours	approximately 24 hours
